Results as given in patent publication US20260166159A1, “KRAS G12D DEGRADATION AGENT, AND PREPARATION METHOD AND USE THEREFOR” (LEADINGTAC PHARMACEUTICAL (SHAOXING) CO., LTD., priority 2022, published 2026).

Columns and labels:
Assay type in all cases: cell-based
KRAS-G12D [1] = molecular target: T1, KRAS-G12D (Homo sapiens, UniProt P01116, G12D); experiment: KRAS-G12D degradation assay (Western Blot), AsPc-1 cells; conditions: for DC50: 24 h; for Dmax: ASPC1, 24 h
T1 construct: endogenous in cells; host or cells: A-427 (ATCC), AGS, AsPc-1, Panc 04.03
How it was run: (§1)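 Western blotting of lysates (5 μg protein) quantified KRAS against a β-actin reference after 24 h exposure to compound at final 0.03–3000 nM in 0.25% DMSO. Cells were A-427, AGS, AsPc-1 or Panc 04.03, all KRAS G12D, at 5×10^5/well. Degradation versus control yielded DC50 and Dmax.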

KRAS-G12D [2] = molecular target: T1, KRAS-G12D; experiment: KRAS-G12D degradation assay (Western Blot), AGS cells; conditions: 24 h
Procedure: (§2) The degradation effects of the compounds on KRAS-G12D were investigated on KRAS G12D mutant human lung cancer cell A-427 (ATCC), KRAS G12D mutant human gastric cancer cell AGS, KRAS G12D mutant human metastatic pancreatic cancer cell AsPc-1, and KRAS G12D mutant human pancreatic adenocarcinoma cell Panc 04.03. The specific procedures were as follows: 0.95 mL of cells were seeded into each well of a 24-well cell culture plate to achieve a cell density of 5×10^5 cells/well; and the cell plate was incubated in an incubator at 37° C. with 5% CO2 overnight. Then 50 μL of the compound solution after dilution was added to each of the wells with the corresponding cells, so that the final concentration of the compound was in a range of 0.03-3000 nM. The final concentration of DMSO was 0.25%. After the compounds were added, the cell plate was incubated in the incubator at 37° C. with 5% CO2 for 24 h. The culture medium in the 24-well cell culture plate was removed, and the plate was washed twice with 1×PBS (KeyGEN). 120 μL of RIPA (strong) lysis buffer (Beyotime) supplemented with 1 mM phenylmethylsulfonyl fluoride, a protease inhibitor mixture (Beyotime), and a protease phosphatase inhibitor mixture (Beyotime) was added to lyse adherent A-427 cells at the bottom of the cell culture plate. After the plate was left to stand on ice for 30 min, the protein lysate in each well was transferred to a 1.5 mL centrifuge tube and centrifuged at 15000 g for 20 min at 4° C. The cell lysate supernatants after centrifugation were cryopreserved in a refrigerator at −80° C. for later use.
(§3) After the samples of the cell lysate supernatants that had been prepared were thawed from the refrigerator at −80° C., the total protein concentrations of the cell lysates were determined using a BCA protein quantification kit (Tiangen). The total protein concentrations of the samples were then adjusted to 0.5 μg/μL with PBS and 5×SDS-PAGE protein loading buffer (Beyotime), and the samples were incubated in a water bath at 100° C. for 15 min. The samples were then incubated in an ice bath for 5 min and centrifuged at 14000 g for 1 min at 4° C., and the supernatants were mixed well as loading samples for the Western Blot assay. The samples were loaded into wells of a 10% precast gel (KeyGEN) with a loading volume of 10 μL (total protein: 5 μg), a sufficient Tris-MOPS-SDS running buffer (Adamas) was added, and then electrophoresis was performed at a constant voltage of 120 V for 55 min. After the electrophoresis, the proteins on the gel were transferred to PVDF membranes at a constant current of 250 mA for 55 min. After the membrane transfer, the PVDF membranes were incubated in 1× Quick Block blocking buffer (Beyotime) at room temperature for 30 min. After the blocking, the PVDF membranes were separately incubated at 4° C. overnight with the KRAS antibody (Abcam) diluted in a ratio of 1:1000 and the […] antibody (Abcam) diluted in a ratio of 1:2000 in 5% BSA as the diluent, and then washed with 1×TBST buffer (2.4 g of Tris, 8.8 g of NaCl, 1.5 mL of Tween 20, with pH adjusted to 7.4, with the volume brought to 1 L) 3 times for 10 min/time. The membranes were incubated with a secondary antibody (Abcam) diluted in 5% BSA at room temperature for 2 h, and then washed with 1×TBST buffer 3 times for 10 min/time. Finally, the membranes were incubated with Clarity Western ECL Substrate (BIO-RAD) for 5 min for luminescence and color development, and a ChemiScope 6200 Touch chemiluminescence imaging system (Clinx) was used for color development and protein mapping. Gray value analysis of the protein maps was performed using the chemiluminescence analysis software (Clinx). The gray correction value for each sample was calculated using the formula: gray correction value=(gray value of target protein/gray value of corresponding internal reference)×10^3. Then degradation rates were calculated by comparison with the gray correction value of the control group. […]

[3] = test system: KRAS G12D mutant human pancreatic cancer cell HPAC; experiment: 3D cell proliferation inhibition assay, HPAC; conditions: 168 h, 7 days, CTG
How it was run: (§4)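 3D growth, low-adsorption plate; 5×10^2 cells/well; cpd 10000–0.026 nM final, 0.2% DMSO; 7 d, 37 °C/5% CO2. CTG luminescence, 60 min RT. % inhibition vs DMSO (cells) and medium blanks; IC50 by nonlinear fit.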

[4] = test system: KRAS G12D mutant human pancreatic cancer cell Panc 04.03; experiment: 3D cell proliferation inhibition assay, Panc 04.03; conditions: 168 h, Panc 04.03, 7 days, CTG
How it was run: as §4

[5] = test system: KRAS G12D mutant human metastatic pancreatic cancer cell AsPc-1; experiment: 3D cell proliferation inhibition assay, AsPc-1; conditions: ASPC1, 168 h, AsPc-1, 7 days, CTG
How it was run: as §4

KRAS-G12D [6] = molecular target: T1, KRAS-G12D; experiment: KRAS-G12D degradation assay (Western Blot), Panc 04.03 cells; conditions: 24 h
Procedure: as §2, §3

KRAS-G12D [7] = molecular target: T1, KRAS-G12D; experiment: KRAS-G12D degradation assay (Western Blot), A-427 cells; conditions: A427 cells, 24 h; for Dmax: A-427
How it was run: as §1

[8] = test system: KRAS G12D mutant human gastric cancer cell AGS; experiment: 3D cell proliferation inhibition assay, AGS; conditions: 168 h, 7 days, CTG
How it was run: as §4

[9] = test system: KRAS G12D mutant human lung cancer cell A427; experiment: 3D cell proliferation inhibition assay, A427; conditions: A-427, 168 h, A427, 7 days, CTG
How it was run: as §4

T1 sequence (P01116 1-188 isoform P01116-2 G12D): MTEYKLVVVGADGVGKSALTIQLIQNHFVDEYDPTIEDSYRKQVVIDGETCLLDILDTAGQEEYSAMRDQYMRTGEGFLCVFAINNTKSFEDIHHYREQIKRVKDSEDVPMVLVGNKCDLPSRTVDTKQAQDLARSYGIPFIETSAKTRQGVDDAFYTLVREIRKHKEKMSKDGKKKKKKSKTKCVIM

In the case of `CCc1cccc2cc(O)cc(-c3ncc4c(N5CC6CCC(C5)N6)nc(OCC5(CN6CCN(CC7CCC8(CC7)CCN(C(=O)c7ccc(C)c(N9CCC(=O)NC9=O)c7)CC8)CC6)CC5)nc4c3F)c12` [Example 51, 1-(5-(9-((4-((1-(((4-(3,8-diazabicyclo[3.2.1]octan-3-yl)-7-(8-ethyl-3-hydroxynaphthalen-1-yl)-8-fluoropyrido[4,3-d]pyrimidin-2-yl)oxy)methyl)cyclopropyl)methyl)piperazin-1-yl)methyl)-3-azaspiro[5.5]undecane-3-carbonyl)-2-methylphenyl)dihydropyrimidine-2,4(1H,3H)-dione], the DC50 (KRAS-G12D [1]) is reported as 4.79 nM, the Dmax (KRAS-G12D [1]) is reported as 99.4% and the DC50 (KRAS-G12D [2]) is reported as 9.87 nM. It also gave a Dmax (KRAS-G12D [2]) of 97.2%, an IC50 [3] of 4.55 nM and an IC50 ([4]; class symbols) of at most 50 nM. The IC50 ([5]; class symbols) was at most 50 nM, the DC50 (KRAS-G12D [6]) was 23 nM and the Dmax (KRAS-G12D [6]) was 93.8%. For the same molecule, the DC50 (KRAS-G12D [7]; class symbols) was at most 50 nM, the Dmax (KRAS-G12D [7]; class symbols) was 80 to 100% and the IC50 ([8]; class symbols) was at most 50 nM. For the same molecule, the IC50 ([9]; class symbols) was at most 50 nM.
`CCc1cccc2cc(O)cc(-c3ncc4c(N5CC6CCC(C5)N6)nc(OCC5(CN6CCN(CC7CCC8(CC7)CCN(C(=O)c7ccc(Cl)c(N9CCC(=O)NC9=O)c7)CC8)CC6)CC5)nc4c3F)c12` [Example 50, 1-(5-(9-((4-((1-(((4-(3,8-diazabicyclo[3.2.1]octan-3-yl)-7-(8-ethyl-3-hydroxynaphthalen-1-yl)-8-fluoropyrido[4,3-d]pyrimidin-2-yl)oxy)methyl)cyclopropyl)methyl)piperazin-1-yl)methyl)-3-azaspiro [5.5]undecane-3-carbonyl)-2-chlorophenyl)dihydropyrimidine-2,4(1H,3H)-dione] showed a DC50 (KRAS-G12D [1]) of 33.1 nM, a Dmax (KRAS-G12D [1]) of 100% and a DC50 (KRAS-G12D [2]) of 1.73 nM. For the same molecule, the Dmax (KRAS-G12D [2]) was 97.3%, the IC50 [3] was 11.6 nM and the IC50 ([4]; class symbols) was at most 50 nM. For the same molecule, the IC50 ([5]; class symbols) was at most 50 nM, the DC50 (KRAS-G12D [6]) was 31.9 nM and the Dmax (KRAS-G12D [6]) was 99.3%. For the same molecule, the DC50 (KRAS-G12D [7]; class symbols) was at most 50 nM, the Dmax (KRAS-G12D [7]; class symbols) was 80 to 100% and the IC50 ([8]; class symbols) was at most 50 nM. It also gave an IC50 ([9]; class symbols) of at most 50 nM.
In the case of `CCc1c(F)ccc2cc(O)cc(-c3ccc4c(N5CC6CCC(C5)N6)nc(OCC5(CN6CCN(CC7CCC8(CC7)CCN(C(=O)c7ccc(C)c(N9CCC(=O)NC9=O)c7)CC8)CC6)CC5)nc4c3F)c12` [Example 75, 1-(5-(9-((4-((1-(((4-(3,8-diazabicyclo[3.2.1]octan-3-yl)-7-(8-ethyl-7-fluoro-3-hydroxynaphthalen-1-yl)-8-fluoroquinazolin-2-yl)oxy)methyl)cyclopropyl)methyl)piperazin-1-yl)methyl)-3-azaspiro[5.5]undecane-3-carbonyl)-2-methylphenyl)dihydropyrimidine-2,4(1H,3H)-dione], the DC50 (KRAS-G12D [1]) is reported as 8.79 nM, the Dmax (KRAS-G12D [1]) is reported as 99.5% and the DC50 (KRAS-G12D [2]) is reported as 57.8 nM. For the same molecule, the Dmax (KRAS-G12D [2]) was 89.2%, the IC50 [3] was 11.3 nM and the IC50 ([4]; numeric values) was 83.9 nM. For the same molecule, the IC50 ([5]; numeric values) was 14.8 nM, the DC50 (KRAS-G12D [6]) was 9.38 nM and the Dmax (KRAS-G12D [6]) was 92%. It also gave a DC50 (KRAS-G12D [7]; numeric values) of 4.13 nM, a Dmax (KRAS-G12D [7]; numeric values) of 83.8% and an IC50 ([8]; numeric values) of 9.1 nM. For the same molecule, the IC50 ([9]; numeric values) was 88.1 nM.
For `C#Cc1cccc2cc(O)cc(-c3ncc4c(N5CC6CCC(C5)N6)nc(OCC5(CN6CCN(CC7CCC8(CC7)CCN(C(=O)c7ccc(OC)c(N9CCC(=O)NC9=O)c7)CC8)CC6)CC5)nc4c3F)c12` [Example 82, 1-(5-(9-((4-((1-(((4-(3,8-diazabicyclo[3.2.1]octan-3-yl)-7-(8-ethynyl-3-hydroxynaphthalen-1-yl)-8-fluoropyrido[4,3-d]pyrimidin-2-yl)oxy)methyl)cyclopropyl)methyl)piperazin-1-yl)methyl)-3-azaspiro[5.5]undecane-3-carbonyl)-2-methoxyphenyl)dihydropyrimidine-2,4(1H,3H)-dione], the DC50 (KRAS-G12D [1]) was 12.6 nM, the Dmax (KRAS-G12D [1]) was 93.7% and the DC50 (KRAS-G12D [2]) was 3.84 nM. It also gave a Dmax (KRAS-G12D [2]) of 97.7%, an IC50 [3] of 4.15 nM and an IC50 ([4]; numeric values) of 14.1 nM. It also gave an IC50 ([5]; numeric values) of 4.95 nM, a DC50 (KRAS-G12D [6]) of 6.74 nM and a Dmax (KRAS-G12D [6]) of 100%. The DC50 (KRAS-G12D [7]; numeric values) was 1.21 nM, the Dmax (KRAS-G12D [7]; numeric values) was 99% and the IC50 ([8]; numeric values) was 5.78 nM. The IC50 ([9]; numeric values) was 21.8 nM.
`C#Cc1c(F)ccc2cc(O)cc(-c3ccc4c(N5CC6CCC(C5)N6)nc(OCC5(CN6CCN(CC7CCC8(CC7)CCN(C(=O)c7ccc(OC)c(N9CCC(=O)NC9=O)c7)CC8)CC6)CC5)nc4c3F)c12` [Example 71, 1-(5-(9-((4-((1-(((4-(3,8-diazabicyclo[3.2.1]octan-3-yl)-7-(8-ethynyl-7-fluoro-3-hydroxynaphthalen-1-yl)-8-fluoroquinazolin-2-yl)oxy)methyl)cyclopropyl)methyl)piperazin-1-yl)methyl)-3-azaspiro[5.5]undecane-3-carbonyl)-2-methoxyphenyl)dihydropyrimidine-2,4(1H,3H)-dione] gave a DC50 (KRAS-G12D [1]) of 4.76 nM, a Dmax (KRAS-G12D [1]) of 98.6% and a DC50 (KRAS-G12D [2]) of 7.02 nM. It also gave a Dmax (KRAS-G12D [2]) of 99.6%, an IC50 [3] of 9.31 nM and an IC50 ([4]; numeric values) of 16.7 nM. For the same molecule, the IC50 ([5]; numeric values) was 5.28 nM, the DC50 (KRAS-G12D [6]) was 11.9 nM and the Dmax (KRAS-G12D [6]) was 98.8%. The DC50 (KRAS-G12D [7]; numeric values) was 2.1 nM, the Dmax (KRAS-G12D [7]; numeric values) was 95% and the IC50 ([8]; numeric values) was 4.17 nM. It also gave an IC50 ([9]; numeric values) of 46.8 nM.
`CCc1c(F)ccc2cc(O)cc(-c3ccc4c(N5CC6CCC(C5)N6)nc(OCC5(CN6CCN(CC7CCC8(CC7)CCN(C(=O)c7ccc(OC)c(N9CCC(=O)NC9=O)c7)CC8)CC6)CC5)nc4c3F)c12` [Example 73, 1-(5-(9-((4-((1-(((4-(3,8-diazabicyclo[3.2.1]octan-3-yl)-7-(8-ethyl-7-fluoro-3-hydroxynaphthalen-1-yl)-8-fluoroquinazolin-2-yl)oxy)methyl)cyclopropyl)methyl)piperazin-1-yl)methyl)-3-azaspiro[5.5]undecane-3-carbonyl)-2-methoxyphenyl)dihydropyrimidine-2,4(1H,3H)-dione] gave a DC50 (KRAS-G12D [1]) of 35.7 nM, a Dmax (KRAS-G12D [1]) of 100% and a DC50 (KRAS-G12D [2]) of 16 nM. The Dmax (KRAS-G12D [2]) was 85.7%, the IC50 [3] was 14.7 nM and the IC50 ([4]; numeric values) was 64.8 nM. For the same molecule, the IC50 ([5]; numeric values) was 14.9 nM, the DC50 (KRAS-G12D [6]) was 27.1 nM and the Dmax (KRAS-G12D [6]) was 95.6%. It also gave a DC50 (KRAS-G12D [7]; numeric values) of 19.8 nM, a Dmax (KRAS-G12D [7]; numeric values) of 87.2% and an IC50 ([8]; numeric values) of 21.1 nM. For the same molecule, the IC50 ([9]; numeric values) was 3.54 nM.
